{
  "source": "patent US7604671B2",
  "about": "“Perfumery for improved cold throw and burn in candle systems” (Givaudan Fragrances Corporation, priority 2004, dated 2009)",
  "origin": "cited, not measured here",
  "conditions": "Randebrock 1986",
  "data": [
    {"compound": "CCCCCCCCCCC=O", "note": "[1-undecanal]", "values": [
      {"measurement": "experimental value for odor detection threshold in air", "result": 0.00054, "unit": "mg/m^3"}
    ]}
  ]
}
